Measured values taken from ChEMBL document CHEMBL3822373, “An evolved oxazolidinone with selective potency against Mycobacterium tuberculosis and gram positive bacteria” (2016).
Values after ≈ are worked out from the molar mass of the structure shown. Active and inactive are the calls of the source. The rule behind the calls is not given here.

Key:
[1] = system: Staphylococcus aureus; test: Potentiation of faropenem-induced antibacterial activity against Staphylococcus aureus ATCC 29213 at <0.5 times MIC90 by checkboard titration assay; assay type: functional, organism-based
[2] = system: Mycobacterium avium; test: Antibacterial activity against Mycobacterium avium 104 measured after 7 days by broth microdilution assay; assay type: functional; conditions: Mycobacterium avium, 104, 168 h
[3] = system: Acinetobacter baumannii; test: Antibacterial activity against Acinetobacter baumannii ATCC 19606 measured after 18 hrs by broth microdilution assay; assay type: functional; conditions: ATCC 19606, 18 h
[4] = system: Staphylococcus aureus; test: Bactericidal activity against Staphylococcus aureus ATCC 29213 up to 8 times MIC90 measured after 2 days by broth microdilution assay; assay type: functional, organism-based
[5] = system: Staphylococcus aureus; test: Potentiation of tabipenem-induced antibacterial activity against Staphylococcus aureus ATCC 29213 at <0.5 times MIC90 by checkboard titration assay; assay type: functional, organism-based
[6] = system: Acinetobacter baumannii; test: Antibacterial activity against Acinetobacter baumannii ACBA measured after 18 hrs by broth microdilution assay; assay type: functional
[7] = system: Klebsiella pneumoniae; test: Antibacterial activity against Klebsiella pneumoniae ATCC 35657 measured after 18 hrs by broth microdilution assay; assay type: functional; conditions: ATCC 35657, 18 h
[8] = system: Staphylococcus aureus; test: Antibacterial activity against […] Staphylococcus aureus ATCC 29213 measured after 18 hrs by broth microdilution assay; assay type: functional; conditions: ATCC 29213, 18 h
[9] = system: Mycobacteroides abscessus; test: Antibacterial activity against Mycobacterium abscessus ATCC 19977 measured after 3 days by broth microdilution assay; assay type: functional; conditions: ATCC 19977, 72 h
[10] = system: Pseudomonas aeruginosa; test: Antibacterial activity against Pseudomonas aeruginosa PA14 measured after 18 hrs by broth microdilution assay; assay type: functional; conditions: PA14, 18 h
[11] = system: Staphylococcus aureus; test: Potentiation of biapenem-induced antibacterial activity against Staphylococcus aureus ATCC 29213 at <0.5 times MIC90 by checkboard titration assay; assay type: functional, organism-based
[12] = system: Enterococcus faecalis; test: Antibacterial activity against Enterococcus faecalis ATCC 19433 measured after 18 hrs by broth microdilution assay; assay type: functional; conditions: ATCC 19433, 18 h
[13] = system: Enterococcus faecalis; test: Potentiation of faropenem-induced antibacterial activity against Enterococcus faecalis ATCC 19433 at <0.5 times MIC90 by checkboard titration assay; assay type: functional
[14] = system: Mycobacterium tuberculosis; test: Potentiation of isoniazid-induced antibacterial activity against Mycobacterium tuberculosis H37Rv by checkboard titration assay; assay type: functional, organism-based
[15] = system: Mycobacterium tuberculosis; test: Antibacterial activity against […] Mycobacterium tuberculosis H37Rv measured after 14 days by broth microdilution assay; assay type: functional; conditions: 336 h
[16] = system: Staphylococcus aureus; test: Bacteriostatic activity against […] Staphylococcus aureus ATCC 29213 assessed as prevention of spontaneous resistant mutant selection up to 60 times MIC90 measured after 5 weeks; assay type: functional, organism-based
[17] = system: Enterococcus faecalis; test: Bactericidal activity against Enterococcus faecalis ATCC 19433 up to 8 times MIC90 measured after 2 days by broth microdilution assay; assay type: functional
[18] = system: Enterobacter cloacae; test: Antibacterial activity against Enterobacter cloacae ATCC 13047 measured after 18 hrs by broth microdilution assay; assay type: functional; conditions: ATCC 13047, 18 h
[19] = system: Mycobacterium tuberculosis; test: Antibacterial activity against Mycobacterium tuberculosis 124R measured after 14 days by broth microdilution assay; assay type: functional; conditions: 336 h
[20] = system: Enterococcus faecalis; test: Potentiation of tabipenem-induced antibacterial activity against Enterococcus faecalis ATCC 19433 at <0.5 times MIC90 by checkboard titration assay; assay type: functional
[21] = system: Mycobacterium tuberculosis; test: Potentiation of rifampicin-induced antibacterial activity against Mycobacterium tuberculosis H37Rv by checkboard titration assay; assay type: functional, organism-based
[22] = system: Enterococcus faecalis; test: Bacteriostatic activity against Enterococcus faecalis ATCC 19433 assessed as prevention of spontaneous resistant mutant selection up to 60 times MIC90 measured after 5 weeks; assay type: functional
[23] = system: Mycobacterium tuberculosis; test: Antibacterial activity against Mycobacterium tuberculosis 115R measured after 14 days by broth microdilution assay; assay type: functional; conditions: 336 h
[24] = system: Mycobacterium tuberculosis; test: Bactericidal activity against Mycobacterium tuberculosis H37Rv measured after 21 days by broth microdilution assay; assay type: functional; conditions: 504 h, read-out: MBC99.9
[25] = system: Acinetobacter baumannii; test: Antibacterial activity against Acinetobacter baumannii 6M-1b measured after 18 hrs by broth microdilution assay; assay type: functional
[26] = system: Enterococcus faecalis; test: Potentiation of biapenem-induced antibacterial activity against Enterococcus faecalis ATCC 19433 at <0.5 times MIC90 by checkboard titration assay; assay type: functional
[27] = system: Mycobacterium tuberculosis; test: Antibacterial activity against Mycobacterium tuberculosis; assay type: functional

Structure (SMILES)	MIC90 [3]	MIC90 [6]	MIC90 [7]	MIC90 [8]	MIC90 [10]	MIC90 [12]	MIC90 [15]	MIC90 [18]	MIC90 [19]	MIC90 [23]	MIC90 [25]	MIC90 [27]	also measured
CC(=O)NC[C@H]1CN(c2ccc3c(c2)Oc2ccccc2O3)C(=O)O1	32 µg/mL (≈ 94 µM)	> 64 µg/mL	> 64 µg/mL	0.5 µg/mL (≈ 1.47 µM)	> 64 µg/mL	0.25 µg/mL (≈ 0.735 µM)	0.5 µg/mL (≈ 1.47 µM)	> 64 µg/mL	0.5 µg/mL (≈ 1.47 µM)	0.5 µg/mL (≈ 1.47 µM)	0.25 µg/mL (≈ 0.735 µM)		Activity [1]: inactive; MIC90 [2]: > 64 µg/mL; Activity [4]: inactive; Activity [5]: inactive; MIC90 [9]: > 64 µg/mL; Activity [11]: inactive; Activity [13]: inactive; Activity [14]: inactive; Activity [16]: Active; Activity [17]: inactive; Activity [20]: inactive; Activity [21]: inactive; Activity [22]: Active; MBC [24]: 2 µg/mL (≈ 5.88 µM); Activity [26]: inactive
C[C@@H](O)[C@H]1C(=O)N2C(C(=O)O)=C(S[C@@H]3CN[C@H](C(=O)N(C)C)C3)[C@H](C)[C@H]12 [MEROPENEM]	> 64 µg/mL	> 64 µg/mL	< 0.06 µg/mL	0.06 µg/mL (≈ 0.156 µM)	0.25 µg/mL (≈ 0.652 µM)	4 µg/mL (≈ 10.4 µM)	4 µg/mL (≈ 10.4 µM)	0.13 µg/mL (≈ 0.339 µM)	8 µg/mL (≈ 20.9 µM)	8 µg/mL (≈ 20.9 µM)	1 µg/mL (≈ 2.61 µM)		MIC90 [2]: > 64 µg/mL; MIC90 [9]: > 64 µg/mL
CO[C@H]1/C=C/O[C@@]2(C)Oc3c(C)c(O)c4c(O)c(c(/C=N/N5CCN(C)CC5)c(O)c4c3C2=O)NC(=O)/C(C)=C\C=C\[C@H](C)[C@H](O)[C@@H](C)[C@@H](O)[C@@H](C)[C@H](OC(C)=O)[C@@H]1C [RIFAMPIN]									128 µg/mL (≈ 156 µM)	4 µg/mL (≈ 4.86 µM)			
C[C@@H](O)[C@H]1C(=O)N2C(C(=O)O)=C([C@H]3CCCO3)S[C@H]12 [FAROPENEM]				0.015 µg/mL (≈ 0.0526 µM)		0.25 µg/mL (≈ 0.876 µM)						2.5 µg/mL (≈ 8.76 µM)	
CC(=O)NC[C@H]1CN(c2ccc(N3CCOCC3)c(F)c2)C(=O)O1 [LINEZOLID]	> 64 µg/mL	> 64 µg/mL	16 µg/mL (≈ 47.4 µM)	1 µg/mL (≈ 2.96 µM)	> 64 µg/mL	1 µg/mL (≈ 2.96 µM)	0.2 µg/mL (≈ 0.593 µM)	> 64 µg/mL	0.25 µg/mL (≈ 0.741 µM)	0.25 µg/mL (≈ 0.741 µM)	0.25 µg/mL (≈ 0.741 µM)		
C[C@@H](O)[C@H]1C(=O)N2C(C(=O)[O-])=C(SC3Cn4cnc[n+]4C3)[C@H](C)[C@H]12 (stereo partly specified) [BIAPENEM]				0.007 µg/mL (≈ 0.02 µM)		0.25 µg/mL (≈ 0.713 µM)						2.5 µg/mL (≈ 7.13 µM)	
C[C@@H](O)[C@H]1C(=O)N2C(C(=O)O)=C(SC3CN(C4=NCCS4)C3)[C@H](C)[C@H]12 [TEBIPENEM]				0.03 µg/mL (≈ 0.0782 µM)		0.25 µg/mL (≈ 0.652 µM)						1.25 µg/mL (≈ 3.26 µM)	
